Results on one molecule are retold here after patent US9808455B2.

The structures appear in SMILES notation.

The subject of the experiment is extra cellular levels of acetylcholine in the prefrontal cortex. The experiment is described as follows: extracellular acetylcholine levels in the prefrontal cortex, preclinical studies in rats. The class given is in vivo. An excerpt: At a mechanistic level, pharmacodynamic interactions between an acetylcholinesterase inhibitor and a 5HT6 receptor antagonist are feasible. […] Although the underlying mechanism is still unknown, it is likely due to increases in the release of acetylcholine from cholinergic neurons, On the other hand, donepezil increases the extracellular levels of acetylcholine by inhibiting the acetylcholinesterase to reduce the degradation of acetylcholine.

Regarding `O=S(=O)(c1ccccc1)c1cnc2c(N3CCNCC3)cccc2c1`, the “extra cellular levels of acetylcholine in the prefrontal cortex” value was “small increase”.
